According to patent publication US20050004007A1, “Promotion of adoptosis in cancer cells by co-administration of cyclin dependent kinase inhibitiors and cellular differentiation agents” (priority 2000, published 2005):

What was measured:
Format in all cases: cell-based, human
U937 cells = assay: cytochrome c release into the cytosol; conditions: FP 100 nM; for cytochrome c release: SB 1 mM, alone from 1 hr, both drugs ≧6 hr
Experimental: Cytochrome c release. The assay for cytochrome c release was performed as previously described by Single et al. [1998] with modifications. At designated times following drug treatment, 4×10^6 cells were washed with PBS and resuspended in 50 μl of assay buffer (75 mM NaCl, 1 mM NaH2P0^4, 8 mM Na2HP0^4, 1 mM EDTA, 250 mM sucrose) containing digitonin (700 μg/ml). Three minutes following addition of digitonin assay buffer, cells were pelleted by centrifugation. The supernatants were transferred to tubes containing 2× Laemmli buffer (50 μl) and boiled for 5 minutes. Proteins were separated by SDS-PAGE as described above.
Analysis of cytosolic cytochrome c. A previously described technique was employed.^32 After treatment, cells (5×10^7/condition) were harvested by centrifugation at 600 g for 10 min at 4° C. The S-100, or cytosolic fraction, was prepared as described with minor modifications. Cell pellets were washed once with ice-cold phosphate-buffered saline and resuspended in five volumes of buffer A (20 mM Hepes-KOH, pH 7.5, 10 mM KCl, 1.5 mM MgCl2, 1 mM sodium EDTA, 1 mM sodium EGTA, 1 mM dithiothreitol, 0.1 mM phenylmethlysufonyl fluoride, and 250 mM sucrose; all Sigma. After chilling for 30 min on ice, the cells were disrupted by 15 strokes of a Potter-Elvehjem (PTFE-pestle) homogenizer. The homogenate was then centrifuged twice to remove unbroken cells and nuclei (3000 g for 10 min at 4° C.). The resulting supernatant was further centrifuged at 100,000 g for 1 h at 4° C., and the supernatants, designated as S-100 fractions, were immediately subjected to Western analysis as described above. For each condition, 25 μg of the S-100 fraction was loaded on the gel, and probed with the corresponding antibody.

Mcl-1 = assay: Western analysis of Mcl-1 in U937 cells; conditions: 100 nM FP, 1 mM SB, 12 and 24 hours
Experimental: Alternatively, whole cell-pellets were washed twice in PBS, resuspended in PBS, and lysed by the addition of I volume of loading buffer. Lysates were boiled for 10 min, centrifuged at 12,800 g for 5 min and quantified using Coomassie protein assay reagent (Pierce, Rockfold, Ill.). 25 μg of total proteins per point were separated by SDS-PAGE and electro-blotted to nitrocellulose. The blots were blocked in 5% non-fat milk in PBS-T and probed for 1 h with the appropriate dilution of primary antibody. Blots were washed 3×10 min in PBS-T and then incubated with a 1:2000 dilution of peroxidase-conjugated secondary antibody for 1 h at room temperature. Blots were again washed 3×10 min in PBS-T and then developed by enhanced chemiluminesence. Where indicated, blots were stripped and re-probed with antibodies directed against actin. […]

pRb = assay: Western analysis of underphosphorylated pRb in U937 cells; conditions: for levels of underphosphorylated pRb: FP 100 nM, SB 1 mM, 12 or 24 hr
Experimental: Western analysis. Equal quantities of protein (15 μg/condition for MAPK, 40 μg/condition for cytochrome c, or 25 μg/condition) were separated by SDS-PAGE [underphosporylated pRB (7.5%), poly(ADP-ribose)polymerase or PARP (8.0%), p44/p42 MAPK (10%), p21, p27, procaspase 3 (12%), and cytochrome c (15%)] and electroblotted onto nitrocellulose. Western analysis of p44/p42 MAPK protein was performed according to the manufacturer's instructions (New England Biolabs); otherwise, studies were performed as previously described [Wang et al, 1998]. Briefly, U937 cells (5×10^6) were pelleted by centrifugation, resuspended in 50 μl PBS, lysed by the addition of 2× Laemmli buffer and boiled for 5 min. Proteins were quantified with Coomassie protein assay reagent. Blots were blocked in PBS-T/5% milk, washed twice with PBS-T, and incubated overnight at 4° C. with the appropriate primary antibody. The blots were washed with PBS-T and incubated with a horseradish-peroxidase conjugated secondary antibody diluted appropriately in PBS-T/5% mill. Following incubation, blots were developed by enhanced chemiluminescence exposure to Kodak X-OMAT film (Eastman Kodak Co., Rochester, N.Y.) and reprobed with antibodies directed against actin to control for equal loading of protein.
Alternatively, whole cell-pellets were washed twice in PBS, resuspended in PBS, and lysed by the addition of I volume of loading buffer. Lysates were boiled for 10 min, centrifuged at 12,800 g for 5 min and quantified using Coomassie protein assay reagent (Pierce, Rockfold, Ill.). 25 μg of total proteins per point were separated by SDS-PAGE and electro-blotted to nitrocellulose. The blots were blocked in 5% non-fat milk in PBS-T and probed for 1 h with the appropriate dilution of primary antibody. Blots were washed 3×10 min in PBS-T and then incubated with a 1:2000 dilution of peroxidase-conjugated secondary antibody for 1 h at room temperature. Blots were again washed 3×10 min in PBS-T and then developed by enhanced chemiluminesence. Where indicated, blots were stripped and re-probed with antibodies directed against actin.
Primary antibodies for both p21^WAF1/CIP1 and p27^KIP1 (Transduction Laboratories, Lexington, Ky.) were used in a 1:1000 dilution; PARP (1:1000; Oncogene Research Products, Cambridge, Mass.); pro-caspase 3 (1:1000; Transduction Laboratories); cytochrome c (1:2000; Pharmingen); bcl-2 (1:2000; DAKO, Denmark); bax (1:1000; Santa Cruz Biotechnology, Inc., Santa Cruz, Calif.); bid (1:1000; Cell Signaling, Beverly, Mass.); XIAP (1:1000; Cell Signaling); Mcl-1 (1:1000; Pharmingen); bak (1:1000; Calbiochem); c-Myc (1:1000; Pharmingen, San Diego, Calif.); actin (1:2000; Sigma Chemicals, St. Louis, Mo.); cyclins-D1, -A and -E (1:1000; Pharmingen); pRb, underP-pRb, pRb-CDK2 and pRb-CDK4 (all 1:1000; Pharmingen); Ac-H3 and Ac-H4 (both 1:1000; Upstate Biotechnology, Lake Placid, N.Y.); E2F-1 (Upstate Biotechnology). Secondary antibodies conjugated to horseradish peroxidase were obtained from Kirkegaard and Perry Laboratories, Inc. (Gaithersburg, Md.). Coomassie protein assay reagent was purchased from Pierce (Rockford, Ill.), and an enhanced chemiluminescence kit was obtained from New England Nuclear (Boston, Mass.). The pan-caspase inhibitor BOC-D-fmk and the caspase 8 inhibitor Z-IETD-fmk were purchased from Enzyme System Products (Livermore, Calif.) All other chemicals or reagents were purchased from Sigma.

Compound | release of cytochrome c into the cytosol (U937 cells; PMA 10 nM, 6 h) | cytochrome c release (U937 cells) | levels of Mcl-1 (Mcl-1) | full-length underphosphorylated pRb (pRb; 10 nM PMA, FP 50, 80 or 100 nM, 24 h) | levels of underphosphorylated pRb (pRb)
CN1CC[C@H](c2c(O)cc(O)c3c(=O)cc(-c4ccccc4Cl)oc23)[C@H](O)C1 [FP, Flavopiridol] | some effect | increased modestly | reductions in levels of Mcl-1 | minimal effect | did not affect
CCCC(=O)[O-].[Na+] [SB, sodium butyrate] | – | increased modestly | minimal effects | – | substantial increase
